Reference: BindingDB's records for doi:10.3109/14756360903468171 (2010)
pKi: −log10 of the molar value.

Biological target: T1, Peroxisome proliferator-activated receptor gamma (Homo sapiens, UniProt P37231)
T1 sequence (P37231 whole entry): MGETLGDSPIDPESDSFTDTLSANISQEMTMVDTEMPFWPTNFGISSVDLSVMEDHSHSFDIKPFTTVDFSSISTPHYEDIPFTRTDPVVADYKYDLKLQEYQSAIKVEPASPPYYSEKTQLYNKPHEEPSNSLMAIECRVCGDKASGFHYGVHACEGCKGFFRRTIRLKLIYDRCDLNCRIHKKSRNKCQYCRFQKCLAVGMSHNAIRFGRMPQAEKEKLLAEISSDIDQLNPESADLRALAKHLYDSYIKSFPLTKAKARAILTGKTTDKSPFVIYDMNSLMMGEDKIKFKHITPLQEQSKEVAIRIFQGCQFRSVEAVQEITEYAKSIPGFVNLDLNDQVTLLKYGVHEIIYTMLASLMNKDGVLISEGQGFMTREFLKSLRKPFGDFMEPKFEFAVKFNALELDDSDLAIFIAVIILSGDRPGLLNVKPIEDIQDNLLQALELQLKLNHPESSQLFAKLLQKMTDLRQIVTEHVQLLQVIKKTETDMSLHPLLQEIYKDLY
Test: Pharmacological In Vitro Assay
Settings: pH 8.2; 4 °C
Procedure: Binding assays were performed in 96-well plate format, using a classical filtration assay with a human full length PPARγ construct (GST-PPAR LBD (25 μg/mL)) expressed in bacteria with some modifications regarding the conditionsof the experiments. The membrane-associated PPARγ was used as the biological source as previously described. Binding buffer consisted of 10 mM Tris/HCl, pH 8.2, containing 50 mM KCl and 1 mM dithiothreitol. Membrane preparations (5 μg/mL) were incubated for 180 min at 4°C in the presence of [3H]rosiglitazone (BRL49653, Amersham) (4 nM) and the tested compounds. Nonspecific binding was defined using an excess of unlabeled rosiglitazone (10 μM). Incubation was terminated by the addition of ice-cold 50 mM Tris/HCl buffer pH 7.4, followed by rapid filtrationunder reduced pressure through Whatman GF/C filter plates presoaked with ice-cold buffer, followed by three successive washes with the same buffer. Radioactivity was measured in a TopCount apparatus (Packard).

Row | SMILES | pKi
1 | CCCCCOc1nc2c(ccc3ccccc32)cc1C(O)CC#CCCCC(=O)OC (centres undefined) [8-Hydroxy-8-(2-pentyloxy-benzo[h]quinolin-3-yl)-oct-5-ynoic acid methyl ester (26b)] | < 5.00
2 | COc1nc2ccccc2cc1C(O)CC#CCCCC(=O)O (centres undefined) [Sodium 8-hydroxy-8-(2-methoxy-quinolin-3-yl)-oct-5-ynoate (9b)] | < 5.00
3 | O=C(O)CCCC#CCC(O)c1cc2ccccc2nc1OCCCC(F)(F)F (centres undefined) [Sodium 8-hydroxy-8-[2-(4,4,4-trifluoro-butoxy)-quinolin-3-yl]-oct-5-ynoate (9e)] | < 5.00
4 | COC(=O)CCCC#CCC(O)c1cc2ccccc2nc1OCCCC(F)(F)F (centres undefined) [8-Hydroxy-8-[2-(4,4,4-trifluoro-butoxy)-quinolin-3-yl]-oct-5-ynoic acid methyl ester (8e)] | < 5.00
5 | COc1nc2ccccc2cc1C(O)CC#CCOCC(=O)O (centres undefined) [Sodium [5-hydroxy-5-(2-methoxy-quinolin-3-yl)-pent-2-ynyloxy]-acetate (18b)] | 5.42
6 | COCCCOc1nc2ccccc2cc1C(O)CC#CCCCC(=O)OC (centres undefined) [8-Hydroxy-8-[2-(3-methoxy-propoxy)-quinolin-3-yl]-oct-5-ynoic acid methyl ester (8d)] | < 5.00

Second part, the compound after the results:

Row | pKi | SMILES
7 | < 5.00 | CCCCCOc1nc2ccccc2cc1C(O)CC#CCCCC(=O)OC (centres undefined) [8-Hydroxy-8-(2-pentyloxy-quinolin-3-yl)-oct-5-ynoic acid methyl ester]
8 | < 5.00 | CCCCCOc1nc2c(ccc3ccccc32)cc1C(O)CC#CCCCC(=O)O (centres undefined) [Sodium 8-hydroxy-8-(2-pentyloxy-benzo[h]quinolin-3-yl)-oct-5-ynoate (27b)]
9 | 6.42 | CCCCCCCCOc1nc2ccccc2cc1C(O)CC#CCCCC(=O)O (centres undefined) [Sodium 8-hydroxy-8-(2-octyloxy-quinolin-3-yl)-oct-5-ynoate (9c)]
10 | < 5.00 | COCCCOc1nc2ccccc2cc1C(O)CC#CCCCC(=O)O (centres undefined) [Sodium 8-hydroxy-8-[2-(3-methoxy-propoxy)-quinolin-3-yl]-oct-5-ynoate (9d)]
11 | 6.23 | CCCCCOc1nc2ccc(OC)cc2cc1C(O)CC#CCCCC(=O)O (centres undefined) [Sodium 8-hydroxy-8-(6-methoxy-2-pentyloxy-quinolin-3-yl)-oct-5-ynoate (27a)]
12 | < 5.00 | CCCCCOc1nc2ccccc2cc1C(O)CC#CCCCC(=O)NCCO (centres undefined) [8-Hydroxy-8-(2-pentyloxy-quinolin-3-yl)-oct-5-ynoic acid (2-hydroxy-ethyl)-amide (14a)]
13 | 5.71 | CCCCCOc1nc2ccccc2cc1C(O)CC#CCOCC(=O)O (centres undefined) [Sodium [5-hydroxy-5-(2-pentyloxy-quinolin-3-yl)-pent-2-ynyloxy]-acetate (18a)]
14 | < 5.00 | CCCCCCCCOc1nc2ccccc2cc1C(O)CC#CCCCC(=O)OC (centres undefined) [8-Hydroxy-8-(2-octyloxy-quinolin-3-yl)-oct-5-ynoic acid methyl ester (8c)]
